From patent US20210255193A1, “LYSINE REACTIVE PROBES AND USES THEREOF” (The Scripps Research Institute, priority 2017, published 2021)
Each block holds one compound with its values, some of them ahead of it.

Experiments:
Assay in all cases: competitive isoTOP-ABPP
Assay type in all cases: binding
[1] = molecular target: T1, GOLGB1 Golgin subfamily B member 1 (Homo sapiens, UniProt Q14789); details: for isoTOP-ABPP ratio (R) at liganded lysine Q14789_K103 / R value (DMSO/fragment) for probe 1 labeling / isoTOP-ABPP reactivity ratio at lysine Q14789_K103: 50 uM, in vitro; for isoTOP-ABPP ratio (R) at liganded lysine Q14789_K103: sol, 231; for R value (DMSO/fragment) for probe 1 labeling: Q14789_K103; for R value (DMSO/fragment) for probe 1 labeling / isoTOP-ABPP reactivity ratio at lysine Q14789_K103: 231 sol
T1 construct: isoTOP-ABPP experiments performed in cell lysates (in vitro); endogenous in cells; host or cells: soluble proteome of human cancer cell lines (MDA-MB-231, Ramos, Jurkat)
Method in brief: (§1)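 Lysate + fragment (50 μM activated ester / 100 μM guanidinylating agent) or DMSO → 0.1 mM STP-alkyne, 1 h, RT → CuAAC to TEV tags (compound light, DMSO heavy) → LC-MS. R = heavy/light MS1 area; liganded lysine if R≥4.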

[2] = molecular target: T2, MAP2K3 Dual specificity mitogen-activated protein kinase (Homo sapiens, UniProt P46734); details: for isoTOP-ABPP ratio (R) at liganded lysine P46734_K93 / R value (DMSO/fragment) for probe 1 labeling: 50 uM, in vitro; for isoTOP-ABPP ratio (R) at liganded lysine P46734_K93: sol, 231; for R value (DMSO/fragment) for probe 1 labeling: P46734_K93, 231 sol
T2 construct: isoTOP-ABPP experiments performed in cell lysates (in vitro); endogenous in cells; host or cells: soluble proteome of human cancer cell lines (MDA-MB-231; Ramos and Jurkat also prepared)
T2 sequence (P46734 1-347): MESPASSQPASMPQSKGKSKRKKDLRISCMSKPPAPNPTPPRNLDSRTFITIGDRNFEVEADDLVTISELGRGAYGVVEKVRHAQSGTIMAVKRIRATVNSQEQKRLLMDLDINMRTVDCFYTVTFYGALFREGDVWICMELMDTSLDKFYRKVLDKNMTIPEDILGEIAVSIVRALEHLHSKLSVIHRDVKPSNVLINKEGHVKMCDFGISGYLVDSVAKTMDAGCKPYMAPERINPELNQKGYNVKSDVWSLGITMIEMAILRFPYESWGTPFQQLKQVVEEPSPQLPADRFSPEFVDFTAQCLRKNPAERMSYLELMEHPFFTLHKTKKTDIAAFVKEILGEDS
Method in brief: as §1

STRN3 Striatin-3 = molecular target: T3, STRN3 Striatin-3 (Homo sapiens, UniProt Q13033); details: for isoTOP-ABPP ratio (R) at liganded lysine Q13033_K755 / R value (DMSO/fragment) for probe 1 labeling / isoTOP-ABPP reactivity ratio at lysine Q13033_K755: 50 uM, in vitro; for isoTOP-ABPP ratio (R) at liganded lysine Q13033_K755: sol, 231; for R value (DMSO/fragment) for probe 1 labeling: Q13033_K755; for R value (DMSO/fragment) for probe 1 labeling / isoTOP-ABPP reactivity ratio at lysine Q13033_K755: 231 sol
T3 construct: isoTOP-ABPP experiments performed in cell lysates (in vitro); endogenous in cells; host or cells: soluble proteome of human cancer cell lines (MDA-MB-231, Ramos, Jurkat)
T3 sequence (Q13033 1-797): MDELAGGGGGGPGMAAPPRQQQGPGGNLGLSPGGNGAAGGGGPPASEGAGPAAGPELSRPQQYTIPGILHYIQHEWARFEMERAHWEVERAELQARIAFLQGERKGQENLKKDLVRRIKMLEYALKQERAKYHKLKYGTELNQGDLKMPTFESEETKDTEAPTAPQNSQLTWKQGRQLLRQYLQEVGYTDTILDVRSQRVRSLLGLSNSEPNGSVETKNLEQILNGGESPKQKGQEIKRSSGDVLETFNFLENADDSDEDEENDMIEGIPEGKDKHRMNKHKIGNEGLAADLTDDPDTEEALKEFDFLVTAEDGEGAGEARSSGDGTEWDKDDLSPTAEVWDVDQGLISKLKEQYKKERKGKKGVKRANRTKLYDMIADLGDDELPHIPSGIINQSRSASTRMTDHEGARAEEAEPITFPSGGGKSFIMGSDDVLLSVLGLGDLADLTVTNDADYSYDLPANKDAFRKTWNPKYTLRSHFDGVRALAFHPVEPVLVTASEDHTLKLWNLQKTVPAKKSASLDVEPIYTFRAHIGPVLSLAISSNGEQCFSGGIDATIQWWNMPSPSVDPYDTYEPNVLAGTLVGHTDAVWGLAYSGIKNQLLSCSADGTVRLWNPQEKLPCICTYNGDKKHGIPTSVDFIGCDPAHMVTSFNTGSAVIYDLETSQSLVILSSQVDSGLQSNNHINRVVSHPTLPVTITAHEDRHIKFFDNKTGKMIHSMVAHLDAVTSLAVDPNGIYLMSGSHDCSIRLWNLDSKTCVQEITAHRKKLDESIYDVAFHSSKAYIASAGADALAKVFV
Method in brief: as §1

T1 sequence (Q14789 whole entry, the tested form may be a part): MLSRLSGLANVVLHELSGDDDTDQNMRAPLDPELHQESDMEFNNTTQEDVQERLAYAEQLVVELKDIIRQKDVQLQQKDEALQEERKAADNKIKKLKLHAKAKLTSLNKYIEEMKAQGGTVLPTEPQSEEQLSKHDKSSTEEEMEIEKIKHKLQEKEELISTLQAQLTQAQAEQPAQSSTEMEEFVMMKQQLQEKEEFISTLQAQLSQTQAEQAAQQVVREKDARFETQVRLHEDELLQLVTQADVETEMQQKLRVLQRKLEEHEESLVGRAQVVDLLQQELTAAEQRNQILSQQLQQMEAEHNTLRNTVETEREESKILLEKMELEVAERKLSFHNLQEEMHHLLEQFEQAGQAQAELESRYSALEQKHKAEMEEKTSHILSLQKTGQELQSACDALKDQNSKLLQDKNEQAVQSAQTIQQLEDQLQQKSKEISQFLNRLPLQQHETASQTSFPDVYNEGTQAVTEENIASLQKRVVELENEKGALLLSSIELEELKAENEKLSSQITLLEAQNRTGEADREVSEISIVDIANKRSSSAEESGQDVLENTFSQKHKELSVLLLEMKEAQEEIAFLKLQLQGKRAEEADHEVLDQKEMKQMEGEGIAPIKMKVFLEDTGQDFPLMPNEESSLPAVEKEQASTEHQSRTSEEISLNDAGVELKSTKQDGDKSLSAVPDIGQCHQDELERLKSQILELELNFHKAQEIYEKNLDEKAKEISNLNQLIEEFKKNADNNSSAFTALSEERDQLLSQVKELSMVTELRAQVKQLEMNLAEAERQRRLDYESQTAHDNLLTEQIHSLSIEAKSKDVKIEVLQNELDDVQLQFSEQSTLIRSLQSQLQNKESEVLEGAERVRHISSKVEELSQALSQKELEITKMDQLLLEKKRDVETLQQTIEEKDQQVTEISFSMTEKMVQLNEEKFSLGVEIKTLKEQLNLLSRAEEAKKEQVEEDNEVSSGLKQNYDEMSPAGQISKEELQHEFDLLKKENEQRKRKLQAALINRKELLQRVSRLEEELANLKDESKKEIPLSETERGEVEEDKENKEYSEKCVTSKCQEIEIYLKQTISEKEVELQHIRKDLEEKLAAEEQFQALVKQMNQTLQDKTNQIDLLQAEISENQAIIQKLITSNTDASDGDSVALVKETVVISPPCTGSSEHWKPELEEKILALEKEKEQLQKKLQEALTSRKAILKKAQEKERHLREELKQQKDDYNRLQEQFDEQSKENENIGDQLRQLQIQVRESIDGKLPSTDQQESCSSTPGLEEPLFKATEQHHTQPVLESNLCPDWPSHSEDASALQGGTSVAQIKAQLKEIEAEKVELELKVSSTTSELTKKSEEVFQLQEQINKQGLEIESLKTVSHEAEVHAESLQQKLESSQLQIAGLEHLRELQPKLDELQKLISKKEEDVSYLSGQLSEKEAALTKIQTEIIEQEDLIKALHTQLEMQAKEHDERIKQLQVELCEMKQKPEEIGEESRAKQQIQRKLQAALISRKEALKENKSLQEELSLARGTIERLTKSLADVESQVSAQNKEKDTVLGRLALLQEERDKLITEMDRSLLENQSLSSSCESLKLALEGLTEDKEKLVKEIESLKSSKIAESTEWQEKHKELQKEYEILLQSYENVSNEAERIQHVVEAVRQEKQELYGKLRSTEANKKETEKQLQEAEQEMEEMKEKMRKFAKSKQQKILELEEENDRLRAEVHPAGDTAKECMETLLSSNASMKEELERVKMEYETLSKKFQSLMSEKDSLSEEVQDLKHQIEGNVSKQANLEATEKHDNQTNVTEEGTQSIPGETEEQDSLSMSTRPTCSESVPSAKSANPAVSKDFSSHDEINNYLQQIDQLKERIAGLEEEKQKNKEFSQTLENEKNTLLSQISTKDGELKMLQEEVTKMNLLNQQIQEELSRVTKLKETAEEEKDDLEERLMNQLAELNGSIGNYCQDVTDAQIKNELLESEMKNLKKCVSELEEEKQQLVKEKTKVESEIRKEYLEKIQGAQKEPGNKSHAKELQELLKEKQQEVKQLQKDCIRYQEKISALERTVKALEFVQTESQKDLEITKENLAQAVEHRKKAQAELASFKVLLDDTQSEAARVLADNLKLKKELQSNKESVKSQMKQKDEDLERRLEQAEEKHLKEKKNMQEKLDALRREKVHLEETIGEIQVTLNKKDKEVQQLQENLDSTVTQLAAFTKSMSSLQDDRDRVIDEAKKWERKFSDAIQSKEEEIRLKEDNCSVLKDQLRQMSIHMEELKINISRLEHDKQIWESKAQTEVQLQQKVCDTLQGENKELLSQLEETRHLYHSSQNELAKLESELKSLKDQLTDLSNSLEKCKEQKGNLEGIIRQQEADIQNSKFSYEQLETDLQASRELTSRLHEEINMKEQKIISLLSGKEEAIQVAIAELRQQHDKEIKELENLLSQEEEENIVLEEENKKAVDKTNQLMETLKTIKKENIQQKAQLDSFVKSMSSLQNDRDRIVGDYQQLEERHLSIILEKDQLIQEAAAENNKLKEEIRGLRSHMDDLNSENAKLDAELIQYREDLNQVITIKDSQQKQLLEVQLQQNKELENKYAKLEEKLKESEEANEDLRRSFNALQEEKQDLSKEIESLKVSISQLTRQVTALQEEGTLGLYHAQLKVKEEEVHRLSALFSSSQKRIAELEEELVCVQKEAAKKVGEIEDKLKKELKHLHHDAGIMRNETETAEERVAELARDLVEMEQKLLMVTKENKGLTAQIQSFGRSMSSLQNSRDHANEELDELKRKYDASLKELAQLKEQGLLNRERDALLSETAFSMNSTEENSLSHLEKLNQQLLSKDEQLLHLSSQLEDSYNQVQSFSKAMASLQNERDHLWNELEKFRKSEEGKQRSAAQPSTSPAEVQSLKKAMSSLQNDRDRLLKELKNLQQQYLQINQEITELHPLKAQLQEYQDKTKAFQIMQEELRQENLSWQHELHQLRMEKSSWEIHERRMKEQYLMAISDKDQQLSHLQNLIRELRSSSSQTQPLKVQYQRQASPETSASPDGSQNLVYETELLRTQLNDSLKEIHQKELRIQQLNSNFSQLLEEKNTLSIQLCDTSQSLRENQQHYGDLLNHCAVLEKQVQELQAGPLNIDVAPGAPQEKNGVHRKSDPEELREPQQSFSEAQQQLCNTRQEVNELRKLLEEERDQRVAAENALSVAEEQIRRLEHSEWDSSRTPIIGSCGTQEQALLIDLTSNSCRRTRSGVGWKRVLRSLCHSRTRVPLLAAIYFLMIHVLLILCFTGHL

SMILES: O=C(CCc1ccc2c(c1)OCO2)Oc1ccc([N+](=O)[O-])cc1[N+](=O)[O-] [fragment 45, 2,4-Dinitrophenyl 3-(benzo[d][1,3]dioxol-5-yl)propanoate]
- isoTOP-ABPP ratio, lysine Q14789_K103 ([1]; 50 uM_231_sol_in vitro): 1.0
- isoTOP-ABPP ratio, lysine P46734_K93 ([2]; 50 uM_231_sol_in vitro): 0.9
- isoTOP-ABPP ratio, lysine Q13033_K755 (STRN3 Striatin-3; 50 uM_231_sol_in vitro): 1.3

SMILES: O=C(CCc1coc2cc(F)ccc2c1=O)Oc1ccc([N+](=O)[O-])cc1[N+](=O)[O-] [fragment 36, 2,4-Dinitrophenyl 3-(7-fluoro-4-oxo-4H-chromen-3-yl)propanoate]
- isoTOP-ABPP ratio (R) at liganded lysine Q14789_K103 [1]: 0.9
- isoTOP-ABPP ratio (R) at liganded lysine P46734_K93 [2]: 0.9
- isoTOP-ABPP ratio (R) at liganded lysine Q13033_K755 (STRN3 Striatin-3): 1.3

SMILES: O=C(CC12CC3CC(CC(C3)C1)C2)Oc1ccc([N+](=O)[O-])cc1[N+](=O)[O-] [fragment 38, 2,4-Dinitrophenyl 2-(adamantan-1-yl)acetate]
- isoTOP-ABPP ratio (R) at liganded lysine Q14789_K103 [1]: 0.9
- isoTOP-ABPP ratio (R) at liganded lysine P46734_K93 [2]: 0.9
- isoTOP-ABPP ratio (R) at liganded lysine Q13033_K755 (STRN3 Striatin-3): 0.9

SMILES: Cn1cc(CC(=O)Oc2c(F)c(F)c(F)c(F)c2F)c2ccccc21 [fragment 22, Pentafluorophenyl 2-(1-methyl-1H-indol-3-yl)acetate]
- R value (DMSO/fragment) for probe 1 labeling [1]: 1.0
- R value (DMSO/fragment) for probe 1 labeling [2]: 0.9
- R value (DMSO/fragment) for probe 1 labeling (STRN3 Striatin-3): 1.0

SMILES: O=C(Oc1ccc([N+](=O)[O-])cc1[N+](=O)[O-])c1ccc2ccccc2n1 [fragment 35, 2,4-Dinitrophenyl quinoline-2-carboxylate]
- isoTOP-ABPP ratio (R) at liganded lysine Q14789_K103 [1]: 0.9
- isoTOP-ABPP ratio (R) at liganded lysine P46734_K93 [2]: 1.0
- isoTOP-ABPP ratio (R) at liganded lysine Q13033_K755 (STRN3 Striatin-3): 1.0

SMILES: O=C(Oc1c(F)c(F)c(F)c(F)c1F)C(c1ccccc1)c1ccccc1 [fragment 20, Pentafluorophenyl 2,2-diphenylacetate]
- R value (DMSO/fragment) for probe 1 labeling [1]: 1.0
- R value (DMSO/fragment) for probe 1 labeling [2]: 0.9
- R value (DMSO/fragment) for probe 1 labeling (STRN3 Striatin-3): 0.9

SMILES: CC(=O)Oc1ccc([N+](=O)[O-])cc1[N+](=O)[O-] [fragment 43, 2,4-Dinitrophenyl acetate]
- isoTOP-ABPP ratio (R) at liganded lysine Q14789_K103 [1]: 1.0
- isoTOP-ABPP ratio (R) at liganded lysine P46734_K93 [2]: 1.0

Further lines, results first:

- isoTOP-ABPP ratio, lysine Q14789_K103 ([1]; 100 uM_231_sol_in vitro): 1.8
- isoTOP-ABPP ratio, lysine P46734_K93 ([2]; 100 uM_231_sol_in vitro): 6.8
- isoTOP-ABPP ratio, lysine Q13033_K755 (STRN3 Striatin-3; 100 uM_231_sol_in vitro): 1.8
SMILES: COC(=O)NC(=NC(=O)OCC1c2ccccc2-c2ccccc21)n1cccn1 [fragment 49, N-Methoxycarbonyl-N′-9-fluorenylmethoxycarbonyl-pyrazole-1-carboxamidine]

- R value (DMSO/fragment) for probe 1 labeling [1]: 1.0
- R value (DMSO/fragment) for probe 1 labeling [2]: 0.9
- R value (DMSO/fragment) for probe 1 labeling (STRN3 Striatin-3): 1.2
SMILES: COc1cc(CCC(=O)Oc2c(F)c(F)c(F)c(F)c2F)cc(OC)c1OC [fragment 23, Pentafluorophenyl 3-(3,4,5-trimethoxyphenyl)propanoate]

- isoTOP-ABPP reactivity ratio at lysine Q14789_K103 [1]: 1.0
- isoTOP-ABPP reactivity ratio at lysine Q13033_K755 (STRN3 Striatin-3): 1.1
SMILES: O=C(Oc1c(F)c(F)c(F)c(F)c1F)C1CCN(C(=O)OCc2ccccc2)CC1 [fragment 24, 1-Benzyl 4-(pentafluorophenyl) piperidine-1,4-dicarboxylate]

- isoTOP-ABPP reactivity ratio at lysine Q14789_K103 [1]: 1.0
- isoTOP-ABPP reactivity ratio at lysine Q13033_K755 (STRN3 Striatin-3): 1.0
SMILES: O=C(Oc1c(F)c(F)c(F)c(F)c1F)c1ccc2ccccc2n1 [fragment 25, Pentafluorophenyl quinoline-2-carboxylate]

- isoTOP-ABPP reactivity ratio at lysine Q14789_K103 [1]: 0.9
- isoTOP-ABPP reactivity ratio at lysine Q13033_K755 (STRN3 Striatin-3): 0.9
SMILES: CCn1cc(C(=O)Oc2c(F)c(F)c(F)c(F)c2F)c(=O)c2ccc(C)nc21 [fragment 28, Pentafluorophenyl 1-ethyl-7-methyl-4-oxo-1,4-dihydro-1,8-naphthyridine-3-carboxylate]
